{"source": "patent US7211246B2", "about": "“Compositions comprising oestrone-3-0-sulphamate and trail (TNF-related apoptosis inducing ligand)” (Sterix Limited, priority 2001, dated 2007)", "key": {"[1]": {"conditions": "in vivo; cited from earlier work"}, "CAL51 cells": {"tested_on": "CAL51 cells", "assay": "TUNEL assay of apoptosis in Cal51 cells with or without caspase inhibitor ZVAD-fmk", "type": "cell-based", "conditions": "5 μM 2-MeOE2bisMATE with 50 μM zVAD-fmk, 3 days", "description": "FIG. 4. Effect of the caspase inhibitor ZVAD-fmk on 2-MeOE2bisMATE induced apoptosis in Cal51 cells. TUNEL assay showing % apoptosis of cells untreated or following treatment with 50 μM ZVAD-fmk, 5 μM 2-MeOE2bisMATE or 5 μM 2-MeOE2bisMATE and 50 μM zVAD-fmk for 3 days. Histograms are overlays for control cells stained in the absence of TdT enzyme (bold) or cells stained with TUNEL reaction mix (open).\nTo determine whether the activation of caspases was important for cell killing, we tested whether a broad range chemical caspase inhibitor interfered with apoptosis. Cells were treated with 2-MeOE2bisMATE in the presence and absence of the caspase inhibitor ZVAD-fmk and cell death was analysed using the TUNEL assay which measures the DNA cleavage associated with apoptosis. The induction of TUNEL positive cells by 2-MeOE2bisMATE was reduced by 60% in the presence of zVAD-fmk (FIG. 4). Therefore 2-MeOE2bisMATE requires activation of caspases for optimal induction of apoptosis."}, "PARP": {"tested_on": "PARP", "assay": "Western blot of PARP cleavage in Cal51 cells", "type": "cell-based", "description": "(§1) FIG. 3. Effect of 2-MeOE2bisMATE on caspase 8 and caspase 3 activation and PARP cleavage in Cal51 cells. Western blots showing caspase 8 and caspase 3 unprocessed and active fragments and PARP uncleaved and cleaved products following treatment of Cal51 cells with solvent, 0.05, 0.5 or 5 μM 2-MeOE2bisMATE for 48 hours.\n(§2) FIG. 5. Effect of 2-MeOE2bisMATE on the timing of caspase 3 and caspase 8 activation and PARP cleavage in Cal51 cells. Western blots showing caspase 3, caspase 8 and PARP unprocessed and cleaved products at 0, 8, 16, 24 and 48 hrs following treatment of Cal51 cells with 5 μM 2-MeOE2bisMATE for 48 hrs or untreated for 48 hrs (48NT).\n(§3) To determine whether caspases might play a role in cell death induced by 2-MeOE2bisMATE and other sulfamoylated oestrogen derivatives, we examined the expression of caspase 3, caspase 8 and PARP by immunoblotting (FIG. 3). […]\n(§4) There are two major pathways of apoptosis; cell surface death receptors activate caspases directly via activation of caspase 8 whereas other apoptotic stimuli operate via triggering the release of cytochrome c from mitochondria which subsequently activates caspases. […] Caspase 3 activation was first detected at 16 hours and as expected was followed by PARP cleavage at 24 hours (FIG. 5). Caspase 8 activation was a relatively late event, first detected at 48 hours. […]"}, "DR5 protein": {"tested_on": "DR5 protein", "assay": "Western blot of DR5 protein levels in Cal51 cells", "type": "cell-based", "conditions": "48 hours, 0.05, 0.5 and 5 μM", "description": "FIG. 6. […] Western blot showing DR5 protein levels following treatment of Cal51 cells for 48 hours with 0, 0.05, 0.5 and 5 μM of 2-MeOEMATE or 2-EtEMATE. PCNA levels represent corresponding loading controls.\nProtein lysates were prepared from CAL51 cells treated with various compounds and analysed for expression of DR5 by immunoblotting (FIG. 6)."}, "caspase 3": {"tested_on": "caspase 3", "assay": "Western blot of caspase 3 activation in Cal51 cells", "type": "cell-based", "description": "as §1, §2\nFIG. 7. Effect of combined treatment of 2-EtEMATE or 2-MeOEMATE and TRAIL on caspase 3 activation in Cal51 cells. Western blots showing caspase 3 activation following treatment of Cal51 cells for 48 hours with solvent, 250 ng/ml TRAIL and 5 μM 2-EtEMATE or 2-MeOEMATE in the presence or absence of 250 ng/ml TRAIL. PCNA levels represent corresponding loading controls. 1, control; 2, THF solvent; 3, TRAIL; 4, 2-EtEMATE; 5,2-EtEMATE+TRAIL; 6, control; 7, THF solvent; 8, TRAIL; 9, 2-MeOEMATE; 10, 2-MeOEMATE+TRAIL\nTo determine whether caspases might play a role in cell death induced by 2-MeOE2bisMATE and other sulfamoylated oestrogen derivatives, we examined the expression of caspase 3, caspase 8 and PARP by immunoblotting (FIG. 3). […] Therefore, cell death induced by the 2-MeOE2bisMATE in Cal51 cells is associated with caspase activation.\nThere are two major pathways of apoptosis; cell surface death receptors activate caspases directly via activation of caspase 8 whereas other apoptotic stimuli operate via triggering the release of cytochrome c from mitochondria which subsequently activates caspases. Both pathways ultimately result in activation of caspase 3 and PARP cleavage. Since activation of caspase 8 is an indicator for the direct involvement of death receptors, it is important to determine whether activation of caspase 8 by 2-MeOE2bisMATE precedes or follows caspase 3 activation. We therefore performed time course experiments in Cal51 cells treated with 2-MeOE2bisMATE to order the activation events. Caspase 3 activation was first detected at 16 hours and as expected was followed by PARP cleavage at 24 hours (FIG. 5). Caspase 8 activation was a relatively late event, first detected at 48 hours. Therefore activation of caspase 3 induced by 2-MeOE2bisMATE precedes activation of caspase 8.\nTo further explore the mechanism for co-operation between sulfamoylated oestrones and TRAIL, we analysed activation of caspase 3 (FIG. 7). […] Therefore, sulfamoylated oestrones and TRAIL cooperate to activate caspase 3."}, "caspase 8": {"tested_on": "caspase 8", "assay": "Western blot of caspase 8 activation in Cal51 cells", "type": "cell-based", "description": "as §1, §2, §3, §4"}, "[2]": {"conditions": "Cal51 cells, 5 μM, time course 0-48 hrs"}, "[3]": {"conditions": "Cal51 cells, 0.05, 0.5 or 5 μM, 48 hours"}}, "data": [{"compound": "C[C@]12CC[C@@H]3c4ccc(OS(=O)(=O)O)cc4CC[C@H]3[C@@H]1CCC2=O", "note": "[E1S, oestrone sulphate]", "values": [{"measurement": "half-life in blood", "setting": "[1]", "value": "10 to 12", "unit": "h"}]}, {"compound": "COc1cc2c(cc1OS(N)(=O)=O)CCC1C2CCC2(C)C(OS(N)(=O)=O)CCC12", "note": "(stereo not shown) [2-MeOE2bisMATE, 2-methoxyoestrone-3-O,17-bissulphamate]", "values": [{"measurement": "reduction of induction of TUNEL positive cells in the presence of zVAD-fmk", "setting": "CAL51 cells", "value": 60, "unit": "%"}, {"measurement": "time of PARP cleavage", "setting": "PARP; [2]", "value": 24, "unit": "h"}, {"measurement": "PARP cleavage", "setting": "PARP; [3]", "value": "Cleavage of PARP"}, {"measurement": "DR5 protein levels by western blot", "setting": "DR5 protein", "value": "no significant change"}, {"measurement": "time at which caspase 3 activation was first detected", "setting": "caspase 3; [2]", "value": 16, "unit": "h"}, {"measurement": "activation of caspase 3", "setting": "caspase 3; [3]", "value": "dose dependent activation"}, {"measurement": "activation of caspase 3, synergistic effect with TRAIL", "setting": "caspase 3; in combination with TRAIL", "value": "increased activation of caspase 3"}, {"measurement": "time at which caspase 8 activation was first detected", "setting": "caspase 8; [2]", "value": 48, "unit": "h"}, {"measurement": "activation of caspase 8", "setting": "caspase 8; [3]", "value": "dose dependent activation"}]}]}
